Laboratory results published in article PMC11527162, “Mutational analysis of Phanerochaete chrysosporium´s purine transporter” (PLOS ONE, 2024).

Key:
PhZ [1] = molecular target: T1, PhZ (Phanerodontia chrysosporium, UniProt A0A1B2TT73, A418V); experiment: competition with [3H]-hypoxanthine uptake in germinating A. nidulans conidia; type: cell-based; details: 0.2 uM [3H]-hypoxanthine, 37 °C
T1 construct: full length, 578 amino acids, from cDNA; C-terminal GFP fusion kept; expressed at the azgA locus of Aspergillus nidulans deltaZAC (azgA, uapA, uapC deleted)

PhZ [2] = molecular target: T2, PhZ (Phanerodontia chrysosporium, UniProt A0A1B2TT73, L124M); experiment: as above; type: cell-based; details: 0.2 uM [3H]-hypoxanthine, 37 °C
T2 construct: full length, 578 amino acids, from cDNA; C-terminal GFP fusion kept; expressed at the azgA locus of Aspergillus nidulans deltaZAC (azgA, uapA, uapC deleted)

[3] = substrate: O=c1[nH]cnc2nc[nH]c12; experiment: inhibition of [3H]-hypoxanthine uptake by unlabelled hypoxanthine in germinating A. nidulans conidia; type: cell-based, Phanerodontia chrysosporium; details: 0.2 uM [3H]-hypoxanthine, 37 °C, minimal medium with nitrate, Km/i taken as equal to IC50 of unlabelled hypoxanthine
[4] = substrate: O=c1[nH]cnc2nc[nH]c12; experiment: as above; type: cell-based, Phanerodontia chrysosporium; details: 0.2 uM [3H]-hypoxanthine, 37 °C, minimal medium with nitrate, Km/i taken as equal to IC50 of unlabelled hypoxanthine; remark: listed apart in the source
Source text: inhibition of [3H]-hypoxanthine uptake by unlabelled hypoxanthine in germinating A. nidulans conidia on PhZ | (A) PhZwt; (B-E) L124M, S133T, T392A and A418V mutants respectively.

[5] = substrate: O=c1[nH]cnc2nc[nH]c12; experiment: as above; type: cell-based, Phanerodontia chrysosporium; details: 0.2 uM [3H]-hypoxanthine, 37 °C, minimal medium with nitrate, Km/i taken as equal to IC50 of unlabelled hypoxanthine; remark: listed apart in the source
Source text: inhibition of [3H]-hypoxanthine uptake by unlabelled hypoxanthine in germinating A. nidulans conidia on PhZ | Dose-response curves for hypoxanthine are shown.

| Molecule | % of initial uptake velocity with 1 mM competitor (PhZ [1]) | % of initial uptake velocity with 1 mM competitor (PhZ [2]) | Km [4] [µM] | other results |
| --- | --- | --- | --- | --- |
| Nc1nc2[nH]nnc2c(=O)[nH]1 [8-azaguanine] | the T392A and A418V mutants exhibited higher levels of inhibition | L124M and S133T, show less [^3H]-hypoxanthine inhibition regarding PhZwt with all purines |  |  |
| Nc1ncnc2[nH]cnc12 [adenine] | the T392A and A418V mutants exhibited higher levels of inhibition | L124M and S133T, show less [^3H]-hypoxanthine inhibition regarding PhZwt with all purines |  |  |
| Nc1nc2[nH]cnc2c(=O)[nH]1 [guanine] | the T392A and A418V mutants exhibited higher levels of inhibition | L124M and S133T, show less [^3H]-hypoxanthine inhibition regarding PhZwt with all purines |  |  |
| PhZ (Phanerodontia chrysosporium; L124M) (protein, full length, 578 amino acids, from cDNA; C-terminal GFP fusion kept; expressed at the azgA locus of Aspergillus nidulans deltaZAC (azgA, uapA, uapC deleted)) MPIALTHRINAFVADSPVGRWFHLEGSGHPKERVGSRFLTELRAGLTTWAAMAYIISVNASIISDTGGTCVCTQPDLCVNDETYLSCVADVRRDLITSTAAVSALASFLMGLLANLPVGMAPGMGLNAYFTYSVVGFHGSGIITYREALAAVFLEGWFFFFLSLLGLRQWLARIMPQSLVMAVGAGIGLFIAFIGLSGGGLGVIGGDTTNLVGLGGCLPQYYTSPDLPNYCASHVLQSPTMWLGIFVGGVFTVFLMLYRVKGAILIGIFLTSIISWPRPTSVTYFPHTDTGDQAFDFFKQVVTFRPLKRIGNALDYNYSNGRVWYALITFLYVDILDTTGTLYSMAKFAGLRDPVTLDFENSTIAYCVDAFSISMGALMGTSPVTAFIESATGISEGGKTGLTAITTGFAFFISVFFAPIFASIPSWATGGALVIVGSLMIRNVRDINWDYVGDSVPAFLTLIIIPLTYNIAYGVIAGIISFVLINGLAWALRKVSGERFAPPNYDASEPWVIPPGSIVPAWMRFIAGRTGLARDAARERPADADVLEMEQHAHDAASASSLGKHVPAVAEPVTEKDD |  |  |  | Km [3]: 1.6 ± 0.3 µM |
| PhZ (Phanerodontia chrysosporium; A418V) (protein, full length, 578 amino acids, from cDNA; C-terminal GFP fusion kept; expressed at the azgA locus of Aspergillus nidulans deltaZAC (azgA, uapA, uapC deleted)) MPIALTHRINAFVADSPVGRWFHLEGSGHPKERVGSRFLTELRAGLTTWAAMAYIISVNASIISDTGGTCVCTQPDLCVNDETYLSCVADVRRDLITSTAAVSALASFLMGLLANLPVGMAPGLGLNAYFTYSVVGFHGSGIITYREALAAVFLEGWFFFFLSLLGLRQWLARIMPQSLVMAVGAGIGLFIAFIGLSGGGLGVIGGDTTNLVGLGGCLPQYYTSPDLPNYCASHVLQSPTMWLGIFVGGVFTVFLMLYRVKGAILIGIFLTSIISWPRPTSVTYFPHTDTGDQAFDFFKQVVTFRPLKRIGNALDYNYSNGRVWYALITFLYVDILDTTGTLYSMAKFAGLRDPVTLDFENSTIAYCVDAFSISMGALMGTSPVTAFIESATGISEGGKTGLTAITTGFAFFISVFFVPIFASIPSWATGGALVIVGSLMIRNVRDINWDYVGDSVPAFLTLIIIPLTYNIAYGVIAGIISFVLINGLAWALRKVSGERFAPPNYDASEPWVIPPGSIVPAWMRFIAGRTGLARDAARERPADADVLEMEQHAHDAASASSLGKHVPAVAEPVTEKDD |  |  | 2.8 ± 0.4 |  |
| PhZ (Phanerodontia chrysosporium) (protein, full length, 578 amino acids, from cDNA; C-terminal GFP fusion kept; expressed at the azgA locus of Aspergillus nidulans deltaZAC (azgA, uapA, uapC deleted)) MPIALTHRINAFVADSPVGRWFHLEGSGHPKERVGSRFLTELRAGLTTWAAMAYIISVNASIISDTGGTCVCTQPDLCVNDETYLSCVADVRRDLITSTAAVSALASFLMGLLANLPVGMAPGLGLNAYFTYSVVGFHGSGIITYREALAAVFLEGWFFFFLSLLGLRQWLARIMPQSLVMAVGAGIGLFIAFIGLSGGGLGVIGGDTTNLVGLGGCLPQYYTSPDLPNYCASHVLQSPTMWLGIFVGGVFTVFLMLYRVKGAILIGIFLTSIISWPRPTSVTYFPHTDTGDQAFDFFKQVVTFRPLKRIGNALDYNYSNGRVWYALITFLYVDILDTTGTLYSMAKFAGLRDPVTLDFENSTIAYCVDAFSISMGALMGTSPVTAFIESATGISEGGKTGLTAITTGFAFFISVFFAPIFASIPSWATGGALVIVGSLMIRNVRDINWDYVGDSVPAFLTLIIIPLTYNIAYGVIAGIISFVLINGLAWALRKVSGERFAPPNYDASEPWVIPPGSIVPAWMRFIAGRTGLARDAARERPADADVLEMEQHAHDAASASSLGKHVPAVAEPVTEKDD |  |  |  | Km [5]: 2.7 ± 0.2 µM |
| PhZ (Phanerodontia chrysosporium; S133T) (protein, full length, 578 amino acids, from cDNA; C-terminal GFP fusion kept; expressed at the azgA locus of Aspergillus nidulans deltaZAC (azgA, uapA, uapC deleted)) MPIALTHRINAFVADSPVGRWFHLEGSGHPKERVGSRFLTELRAGLTTWAAMAYIISVNASIISDTGGTCVCTQPDLCVNDETYLSCVADVRRDLITSTAAVSALASFLMGLLANLPVGMAPGLGLNAYFTYTVVGFHGSGIITYREALAAVFLEGWFFFFLSLLGLRQWLARIMPQSLVMAVGAGIGLFIAFIGLSGGGLGVIGGDTTNLVGLGGCLPQYYTSPDLPNYCASHVLQSPTMWLGIFVGGVFTVFLMLYRVKGAILIGIFLTSIISWPRPTSVTYFPHTDTGDQAFDFFKQVVTFRPLKRIGNALDYNYSNGRVWYALITFLYVDILDTTGTLYSMAKFAGLRDPVTLDFENSTIAYCVDAFSISMGALMGTSPVTAFIESATGISEGGKTGLTAITTGFAFFISVFFAPIFASIPSWATGGALVIVGSLMIRNVRDINWDYVGDSVPAFLTLIIIPLTYNIAYGVIAGIISFVLINGLAWALRKVSGERFAPPNYDASEPWVIPPGSIVPAWMRFIAGRTGLARDAARERPADADVLEMEQHAHDAASASSLGKHVPAVAEPVTEKDD |  |  | 2.1 ± 0.4 |  |
| PhZ (Phanerodontia chrysosporium; T392A) (protein, full length, 578 amino acids, from cDNA; C-terminal GFP fusion kept; expressed at the azgA locus of Aspergillus nidulans deltaZAC (azgA, uapA, uapC deleted)) MPIALTHRINAFVADSPVGRWFHLEGSGHPKERVGSRFLTELRAGLTTWAAMAYIISVNASIISDTGGTCVCTQPDLCVNDETYLSCVADVRRDLITSTAAVSALASFLMGLLANLPVGMAPGLGLNAYFTYSVVGFHGSGIITYREALAAVFLEGWFFFFLSLLGLRQWLARIMPQSLVMAVGAGIGLFIAFIGLSGGGLGVIGGDTTNLVGLGGCLPQYYTSPDLPNYCASHVLQSPTMWLGIFVGGVFTVFLMLYRVKGAILIGIFLTSIISWPRPTSVTYFPHTDTGDQAFDFFKQVVTFRPLKRIGNALDYNYSNGRVWYALITFLYVDILDTTGTLYSMAKFAGLRDPVTLDFENSTIAYCVDAFSISMGALMGTSPVTAFIESAAGISEGGKTGLTAITTGFAFFISVFFAPIFASIPSWATGGALVIVGSLMIRNVRDINWDYVGDSVPAFLTLIIIPLTYNIAYGVIAGIISFVLINGLAWALRKVSGERFAPPNYDASEPWVIPPGSIVPAWMRFIAGRTGLARDAARERPADADVLEMEQHAHDAASASSLGKHVPAVAEPVTEKDD |  |  | 2.3 ± 0.3 |  |
